Measured values published in patent publication US12187717B2, “Compound and use thereof in treating autoimmune diseases” (PARENCHYMA BIOTECH INC., priority 2022, dated 2025).

How the values were obtained:
[1] = system: Foxp3-expressing regulatory T cells (Treg); assay: Production of Foxp3-expressing regulatory T cells from naive CD4 T cells (flow cytometry); assay type: cell-based, C57BL/6 mice; conditions: 3 days
Protocol: The spleen of C57BL/6 mice (8 to 12 weeks old, female) was excised, pulverized by adding RPMI medium, and then passed through a 40 μm cell strainer (BD Falcon), thereby obtaining a single cell suspension. The single cell suspension was centrifuged (1200 rpm, 5 minutes), and after discarding the supernatant, 1 ml of ACK lysis buffer was added, followed by stirring for 1 minute and then washing the same with RPMI medium. After the single cell suspension was centrifuged, T-cells were separated using a Mouse CD4 Naive T cell Enrichment Kit (Invitrogen). The separated T-cells were prepared by resuspending them in RPMI-fetal bovine serum (FBS) 10%+2-ME (mercaptoethanol) medium at 1×10^6/ml. For T-cell activation, 5 μg/ml anti-CD3 (eBioscience™) was dispensed by 100 μl onto a 96-well plate, reacted in a cell incubator (37° C., 5% CO2 incubator) for 4 hours, and washed with phosphate buffered saline to prepare the plate. The T-cells were dispensed by 200 μl onto the prepared plate, and each well was treated with 2 μg/ml of anti-CD28 (eBioscience™), 2 ng/ml of TGFβ-1 (R&D systems), and 100 U/ml of IL-2. Each 5 μl of Compounds 6 and 9 at a concentration of 2.5 μM diluted in RPMI-fetal bovine serum 10%+2-ME medium was used for treatment, followed by culturing the same in a cell incubator (37° C., 5% CO2 incubator) for 3 days. […]
In order to confirm the expression of Foxp3 protein, the recovered cells were placed in a 5 ml FACS tube (BD Falcon) and washed with 1 ml of phosphate buffered saline. […] The cells were washed twice with the Permeabilization buffer, suspended in 0.3 ml of FACS buffer, and measured by flow cytometry.
The promotion effects of Compound 6 and Comparative Example 1 on the production of “FoxP3-expressing regulatory T cells,” which play an important role in maintaining immune tolerance, were compared (FIG. 24). […] After 3 days, in order to confirm the effects of production of the regulatory T cells, the cultured cells were recovered and Foxp3 protein expression was measured in the same manner as in FIG. 4.

CYP3A4 = CYP3A4 (Homo sapiens, UniProt P08684); conditions: 2 days, 10 μM
Sequence of CYP3A4 (P08684 whole entry): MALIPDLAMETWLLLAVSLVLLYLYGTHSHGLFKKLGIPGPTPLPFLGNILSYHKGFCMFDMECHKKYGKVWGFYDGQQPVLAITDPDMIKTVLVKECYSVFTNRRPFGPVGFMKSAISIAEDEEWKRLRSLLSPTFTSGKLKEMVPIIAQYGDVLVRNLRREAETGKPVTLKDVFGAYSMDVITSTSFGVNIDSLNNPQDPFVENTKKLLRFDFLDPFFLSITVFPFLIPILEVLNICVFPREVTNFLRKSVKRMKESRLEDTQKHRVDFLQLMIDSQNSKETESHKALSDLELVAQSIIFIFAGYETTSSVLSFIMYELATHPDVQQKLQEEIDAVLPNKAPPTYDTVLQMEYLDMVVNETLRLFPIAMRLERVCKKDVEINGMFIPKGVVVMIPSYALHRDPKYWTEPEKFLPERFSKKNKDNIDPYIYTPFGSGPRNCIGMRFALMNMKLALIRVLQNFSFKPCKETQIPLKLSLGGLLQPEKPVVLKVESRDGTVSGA
Protocol: Live human hepatocyte cell lines (Corning, Cat No. 454551) were collected using a plating medium, seeded on a 24-well plate so that a cell density thereof was 0.4×10^6 cells/well, and cultured for 2 to 4 hours. After replacing the plating medium with a hepatocyte culture medium, the hepatocytes were cultured for 24 hours. After culturing for 24 hours, hepatocytes were treated with Compound 6 at 1, 5, 25 µM. The medium containing the compound was changed every 24 hours for 2 days. The cultured cells were recovered to prepare mRNA samples. mRNA was extracted from the recovered cells by a phenol-chloroform sedimentation method using TRIZOL reagent (Invitrogen, Cat No. 15596018). From the isolated RNA, cDNA was synthesized by reverse transcription, followed by measuring drug metabolizing enzymes CYP1A2, CYP2C9, CYP2C19, CYP2B6, and CYP3A4 through real-time PCR analysis using the Quant Studio™ 7 Flex Real-Time PCR System (Applied Biosystems, CA). Relative values of the enzyme expression levels were compared by the ΔΔct method using GAPDH as a control enzyme. Herein, one (1) fold was set using the control. Results are expressed as % of control compared to control sample.

## O=C(Cc1c[nH]c2ccc(Cl)cc12)Nc1nc2ccc(N3CCOCC3)cc2s1 [Compound 6, 2-(5-chloro-1H-indol-3-yl)-N-(6-morpholinobenzo[d]thiazol-2-yl)acetamide]
[1]; 2.5 μM and 5 μM, compared to Comparative Example 1
  production of Foxp3-expressing regulatory T cells: significantly increased
[1]; 2.5 μM, compared to Vehicle
  production of Foxp3-expressing regulatory T cells: markedly increased
CYP3A4
  CYP3A4 activity: 85.7 % of Control Activity
